Reference: US20130084328A1, “METHYLATED CODING AND NON-CODING RNA GENES AS DIAGNOSTIC AND THERAPEUTIC TOOLS FOR HUMAN MELANOMA” (Sanford-Burnham Medical Research Institute, priority 2011, published 2013)

Tested on: miR-124-3a and miR-let-7i
Assay: expression and bisulfite methylation of miR-124-3a and miR-let-7i after 5-Aza-dC
Type: cell-based, human
Settings: melanoma cells
Description: PCR was performed using a 6-minute hot-start at 95° C., followed by 35 cycles at 94° C. for 20 s, 54° C. for 25 s, and 72° C. for 30 s, ending with a 10-min extension at 72° C. using AmpliTaq Gold (Applied Biosystems/Life Technologies). PCR products were gel purified using the QiaQuick gel extraction kit (QIAGEN) and cloned into the pCR4-TOPO vector (Invitrogen/Life Technologies). Nine clones for each miRNA candidate and 6 clones for each patient sample were sequenced using M13 primers and the BigDye terminator kit v1.1 (Applied Biosystems/Life Technologies), analyzed on a 3130×1 Genetic Analyzer (Applied Biosystems/Life Technologies), and aligned using Vector NTi AlignX (Invitrogen/Life Technologies).

Nc1ncn([C@H]2C[C@H](O)[C@@H](CO)O2)c(=O)n1 [5AzadC, 5-aza-2′-deoxycytidine]
expression and methylation levels of miR-124-3a and miR-let-7i: not affected
